The target in test [1] is T1, ZmHK1 (tobacco membrane; fused to GFP) (Zea mays, UniProt Q9FRY7).
T1 sequence (Q9FRY7 1-974): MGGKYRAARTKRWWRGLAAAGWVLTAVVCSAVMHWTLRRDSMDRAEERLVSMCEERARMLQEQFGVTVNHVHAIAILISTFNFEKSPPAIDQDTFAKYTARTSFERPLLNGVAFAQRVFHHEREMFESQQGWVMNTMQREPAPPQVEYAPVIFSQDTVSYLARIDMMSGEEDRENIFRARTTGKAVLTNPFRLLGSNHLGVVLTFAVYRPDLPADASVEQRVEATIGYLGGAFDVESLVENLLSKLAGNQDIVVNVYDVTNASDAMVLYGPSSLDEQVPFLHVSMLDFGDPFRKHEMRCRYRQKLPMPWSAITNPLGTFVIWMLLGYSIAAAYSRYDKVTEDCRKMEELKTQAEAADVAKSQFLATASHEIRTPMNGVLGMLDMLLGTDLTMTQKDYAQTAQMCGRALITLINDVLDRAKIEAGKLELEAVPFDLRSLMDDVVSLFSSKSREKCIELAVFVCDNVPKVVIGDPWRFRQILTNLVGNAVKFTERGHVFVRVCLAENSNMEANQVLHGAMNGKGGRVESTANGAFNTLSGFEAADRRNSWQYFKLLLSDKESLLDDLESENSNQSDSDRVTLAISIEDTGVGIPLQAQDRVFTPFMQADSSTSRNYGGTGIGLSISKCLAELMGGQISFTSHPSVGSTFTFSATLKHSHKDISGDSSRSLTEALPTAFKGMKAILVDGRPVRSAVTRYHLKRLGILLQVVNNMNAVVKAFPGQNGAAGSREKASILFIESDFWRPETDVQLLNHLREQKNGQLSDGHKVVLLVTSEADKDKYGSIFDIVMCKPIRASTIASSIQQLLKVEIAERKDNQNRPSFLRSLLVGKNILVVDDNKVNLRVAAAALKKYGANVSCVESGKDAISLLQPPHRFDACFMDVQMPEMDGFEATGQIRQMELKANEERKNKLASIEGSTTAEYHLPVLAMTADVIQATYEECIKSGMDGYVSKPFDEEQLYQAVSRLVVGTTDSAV
Kind of test: cytokinin binding assay, tobacco microsomal membranes.

Test [2] deals with T2, ZmHK1 (tobacco membrane; fused to GFP) (Zea mays, UniProt Q9FRY7, P190L).
T2 sequence (Q9FRY7 1-974 P190L): T1 sequence (Q9FRY7 1-974) with P190L
The description is as above.

Structures are written as SMILES. Where a chain is given by its changes, count along the chain named.

A word on the Kd: it is a measure of binding affinity in units of concentration. A lower Kd goes with a tighter complex.

Take `Nc1ncnc2nc[nH]c12` [Ade]: in test [1], the dissociation constant (Kd) was over 10000 nM.
The same measure, in the same setting: the figure for `c1ccc(CNc2ncnc3nc[nH]c23)cc1` [BA] is 1.42 nM; for `C[C@H](CO)CCNc1ncnc2nc[nH]c12` [DZ] it is 114 nM.
Regarding `O=C(Nc1ccccc1)Nc1cnns1` [TD], the affinity in test [1], expressed as Kd, was 49.2 nM.
Regarding `CC(C)=CCNc1ncnc2nc[nH]c12` [iP], in test [2], binding was characterised by a dissociation constant (Kd) of 0.23 nM.

(Values after doi:10.1101/743898v3 (biorxiv, 2019).)
